Source: patent publication US12011445B2, “Prevention of pancreatic cell degeneration” (Melior Pharmaceuticals I, Inc., priority 2010, dated 2024)
“Also recorded” adds a separate entry of the source.

Columns and labels:
[1] = Oral glucose tolerance test; assay type: in vivo, mice; details: for blood glucose levels at all time points after administration: P<0.05
Description: Glucose was formulated in water at a concentration of 150 mg/ml and dosed at a volume of 10 ml/kg to produce a dose of 1.5 g/kg. Glucose was measured using the Ascensia II Elite XL glucose monitor ([…]). Measure glucose by taking a small (2 mm) section off the tip of the tail, bleed onto glucose test strip and measure. Data for each time point analyzed by ANOVA and post-hoc Tukey's test. A p value of less then 0.05 was used to indicate statistical significance. […]
In study 1, mice were dosed with Compound 102 and glucose as follows:
In study 2, mice were dosed with Compound 102 and glucose as follows.
Study 3 tested Compound 102 and was conducted as follows: […]

leptin = assay: Leptin levels in Western diet treated animals (ELISA); assay type: in vivo, mice; details: animals fed a western diet
Description: Blood from mice that were on western diet (Compound 102) were analyzed for leptin levels. Mice were bled by retroorbital eyebleed on days 7, 14, 21 and 28 after the initiation of the study. On day of REB mice were dosed once with full dose 1 hr prior to bleed. Leptin levels were determined by ELISA (R&D Systems) as per directions. Data are expressed as the average±SEM. Data were averaged and analyzed by ANOVA followed by a post-hoc Tukey's test with a p value of less then 0.05 indicating a statistical difference.

Db/Db mice [2] = assay: Blood glucose and serum insulin levels in db/db mice, 56 days; assay type: in vivo
Description: Blood glucose levels were measured once per week and serum insulin levels measured at the beginning and at the end of the study.

[3] = Western Diet study (weight, food intake, fat pads); assay type: in vivo, Male CD1/ICR mice
Description: Male CD1/ICR mice were obtained from Harlan. The study was started when mice were 8 weeks of age. Prior to initiation of the study mice fasted for 24 hrs. Mice were fed “Western Diet” that was designed to approximate the “typical” human diet of North America and Europe (Research Diets; New Brunswick, N.J.; Western Diet composition). The Western Diet contained greater then 5 times more fat then normal chow. [table] Mice were weighed daily beginning from the start of the 24 hr fasting period. Food intake was monitored continuously. Mice were bled by retroorbital eyebleed on days 7, 14, 21 and 28 after the initiation of the study. On day of REB mice were dosed 1× with full dose 1 hr prior to bleed. Fat pads were dissected at the end of the study (day 31) weighed and frozen. The following fat pads were dissected: brown, inguinal, axial, mesenteric, renal and epidydimal. Data were averaged and analyzed by ANOVA followed by a post-hoc Tukey's test with a p value of less then 0.05 indicating a statistical difference.

Zucker rats = assay: In vivo Zucker rat study (oral glucose challenge); details: 30 mg/kg ip; glucose 1.5 g/kg; 30 and 270 minutes after administration
Description: Zucker rats and corresponding lean rats were supplied by Harlan. Rats were fed a normal diet, ad libitum, and kept on a 12 hr light/dark cycle. Rats were housed 3 per cage. At 12 weeks of age, Zucker rats were administered Compound 102 at a concentration of 30 mg/kg (ip). Blood glucose levels were measured 30 minutes after administration. Forty-five minutes after drug administration, animals were administered a glucose solution (1.5 g/kg) by oral gavage. Blood glucose levels were measured every 30 minutes after gavage for 4.5 hrs. There were 3 groups with 3 animals per group: 1) 3 Zucker leans (no drug; no glucose treatment); 2) Zucker vehicle treated group (glucose challenged and 3) Zucker Compound 102 treatment (30 mg/kg); glucose challenged.

Db/Db mice [4] = assay: In vivo Db/Db mouse study; details: for acute blood glucose response: upon study initiation and on weekly blood glucose testing
Description: Db/Db and Db/lean mice were obtained from Harlan at 6 weeks of age. Mice were housed 3 per cage and fed ad libitum normal rodent chow. Mice were kept on a 12 hr Light:dark cycle.
The study was initiated when mice reached an age of 8 weeks and their baseline blood glucose levels were greater than 200 mg/dl. Compound 102 was formulated in PBS: 2N HCl (99:1) at concentrations of 0.5, 1.5 and 5 mg/ml. Mice were dosed at volumes of 10 ml/kg to produce doses of 5, 15 and 50 mg/kg/dose. Mice were dosed twice per day at an 8 hr interval (8 am and 4 pm) during the light cycle.
For the acute blood glucose measurements, blood glucose levels were measured after the animals received their first dose of Compound 102. Blood glucose levels were measured two hours after this initial injection.
Mice were administered vehicle or drug (i.e., Compound 102) (5, 15, and 50 mg/kg) twice per day (bid) for the 28 days. Mouse weight and food intake were monitored daily. Food intake is reported as food intake (grams) per mouse per 24 hr period.

pancreatic β-cells = assay: Pancreatic β-cell degeneration in db/db mice (insulin antibody staining of pancreas); assay type: in vivo
Description: Db/db mice were administered Compound 102 (100 mg/kg) for 60 days. At the end of the treatment period, pancreases were removed, post-fixed, sectioned and stained with insulin antibody to visualize pancreatic β-cells. Vehicle treated db/db mice expressed dramatically less insulin staining than lean control mice.

[5] = study 1, single administration, 30 mg/kg
[6] = Western diet, fat pads dissected day 31
[7] = IP, twice/day, four weeks, 5, 15 and 50 mg/kg
[8] = chronic treatment, histology, vs untreated controls, FIG. 2

Cc1cccc(Oc2cnc(=O)[nH]c2)c1 [Compound 102]
blood glucose levels produced by oral glucose administration [1, 5]: significantly attenuated
normal blood glucose levels (pre-glucose loading) [1, 5]: significantly decreased
time after drug administration at which significance was lost [1, 5]: 90 min
effect on blood glucose levels ([1]; study 2, increased dosing): more dramatic effect
blood leptin levels (leptin): reduced leptin levels to those fed a normal diet
serum insulin levels (Db/Db mice [2]; 30 mg/kg daily for 56 days, beginning vs end of study, FIG. 1): significantly slowed the loss; also recorded: prevention of the loss of serum insulin levels
blood glucose levels (Db/Db mice [2]; 30 mg/kg daily for 56 days, measured once per week, FIG. 1): attenuated the progressive rise; also recorded: decrease in blood glucose
extent of serum insulin lowering associated with pancreatic β-cell loss (Db/Db mice [2]; db/db mice, compared among Compound 102, vehicle and rosiglitazone): do not exhibit the extent of serum insulin lowering
food intake ([3]; Western / high fat diet fed mice): not affected; also recorded: independent of an effect on food intake; also recorded: normal food intake
brown, axial, inguinal, renal and epipdydimal fat pad increases [3, 6]: significantly reduced
mesenteric fat pad levels [3, 6]: not
weight gain ([3]; Western diet, highest dose tested (30 mg/kg/day), absolute weight and weight change from day 0): significantly reduced
defecation ([3]; chronic administration, high fat diet): defecated normally
hyperactivity normally associated with the amphetamine class of weight-loss drugs ([3]; mouse, in vivo): did not display the hyperactivity
animals fed a western diet and treated, compared with normal diet (weight gain, food intake, fat pad development, leptin) ([3]; summary of Examples 2 and 3): do not look different from those fed a normal diet
weight change / weight-gain response ([3]; western (high fat) diet fed animals, chronic administration, dose not stated): significant alteration; also recorded: significantly inhibited
fat pad development ([3]; western diet fed animals): reduction in fat pad development
blood glucose levels after oral glucose administration (Zucker rats): reduced blood glucose levels at both time points
acute blood glucose response (Db/Db mice [4]; 15 mg/kg dose group): acute dose response
acute blood glucose response (Db/Db mice [4]; 50 mg/kg dose group): acute dose response
effect on animal weight gain (Db/Db mice [4]; [7]): dose dependent effect
effect on blood glucose levels (Db/Db mice [4]; [7]): dose dependent effect
blood glucose levels following acute administration (Db/Db mice [4]; measured two hours after first dose): reduce blood glucose levels
insulin staining of pancreas sections (pancreatic β-cells; 100 mg/kg for 60 days): significantly higher levels of insulin staining than vehicle treated mice
islet insulin content (pancreatic β-cells; [8]): increased insulin content
islet structure (pancreatic β-cells; [8]): better preserved islet structure
pancreatic β-cell degeneration (pancreatic β-cells; db/db mice, FIG. 2): prevents β-cell degeneration; also recorded: prevention of pancreatic β-cell degeneration

O=c1ncc(Oc2cccc(Cl)c2)c[nH]1 [Compound 105]
baseline blood glucose levels ([1]; data not shown): significantly depressed
blood glucose levels ([1]; oral glucose tolerance test, overall statement): dramatic reductions
blood glucose levels at all time points after administration ([1]; single dose 2 mg/kg): significantly (P<0.05) reduced
blood glucose levels at all time points after administration ([1]; single dose 10 mg/kg): significantly (P<0.05) reduced
